Assay results: patent US8815881B2 (Hoffmann-La Roche Inc., priority 2010, dated 2014)

Molecular target: endogenous cellular BACE2 in the Ins1e rat cell line (Rattus norvegicus (Rat), UniProt Q6IE75)
Test: Assay for BACE inhibition by measuring cellular TMEM27 cleavage (ELISA of shed hTMEM27 from INS-TMEM27 cells)
Format: cell-based
Settings: assay a): cellular TMEM27 cleavage, INS-TMEM27 cells (superscript a)
Source text: a) Assay for BACE Inhibition by Measuring Cellular TMEM27 Cleavage:
The assay uses the principle of inhibition of human TMEM27 cleavage by endogenous cellular BACE2 in the Ins1e rat cell line and shedding from the cell surface into the culture medium, followed by detection in an ELISA assay. Inhibition of BACE2 prevents the cleavage and shedding in a dose-dependent manner.
The stable cell line “INS-TMEM27” represents an INS1e-derived cell line with inducible expression (using the TetOn system) of full-length hTMEM27 in a doxycycline-dependent manner. The cells are cultured throughout the experiment in RPMI1640+Glutamax (Invitrogen) Penicillin/Streptomycin, 10% Fetal bovine serum, […], […], 100 micrograms/ml G418 and 100 microgram/ml hygromycin and are grown inadherent culture at 37° C. in a standard CO2 cell culture incubator.
INS-TMEM27 cells are seeded in 96-well plates. After 2 days in culture, BACE2 inhibitor is added in a range of concentrations as required by the assay and after a further two hours, doxycycline is added to a final concentration of 500 ng/ml. The cells are incubated for a further 46 hours and the supernatant harvested for detection of shed TMEM27.
An ELISA assay (using a pair of mouse anti-human-TMEM27 antibodies, raised against the extracellular domain of TMEM27) is used for detection of TMEM27 in the culture medium. An EC50 for BACE2 inhibition is calculated using the ELISA readout for each inhibitor concentration with standard curve-fitting software such as XLFit for the Excel spreadsheet program.

Chain of endogenous cellular BACE2 in the Ins1e rat cell line (Q6IE75 63-514): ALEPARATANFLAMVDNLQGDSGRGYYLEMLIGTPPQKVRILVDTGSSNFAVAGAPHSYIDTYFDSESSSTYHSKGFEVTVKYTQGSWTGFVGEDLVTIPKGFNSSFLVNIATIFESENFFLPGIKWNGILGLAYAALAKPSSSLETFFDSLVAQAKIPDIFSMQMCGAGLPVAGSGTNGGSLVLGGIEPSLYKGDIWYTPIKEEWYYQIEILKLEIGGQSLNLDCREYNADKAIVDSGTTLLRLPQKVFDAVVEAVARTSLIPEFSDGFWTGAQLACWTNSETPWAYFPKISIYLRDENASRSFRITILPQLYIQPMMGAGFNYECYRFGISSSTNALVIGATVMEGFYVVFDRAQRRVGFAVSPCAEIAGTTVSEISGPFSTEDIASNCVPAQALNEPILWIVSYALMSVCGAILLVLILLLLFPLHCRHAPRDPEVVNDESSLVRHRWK

| IC50 [nM] | Compound |
| --- | --- |
| 4 | CC1CCCC1Nc1ccc(F)c([C@@]2(C)N=C(N)N(C)C(=O)C2(C)C)c1 (stereo partly drawn) [Example 25, (S)-2-Amino-6-[2-fluoro-5-(2-methyl-cyclopentylamino)-phenyl]-3,5,5,6-tetramethyl-5,6-dihydro-3H-pyrimidin-4-one] |
| 37 | CN1C(=O)C(C)(C)[C@@](C)(c2cc(NC3CCN(c4ccc(F)cc4)C3)ccc2F)N=C1N (stereo partly drawn) [Example 31, (6S)-2-Amino-6-(2-fluoro-5-(1-(4-fluorophenyl)pyrrolidin-3-ylamino)phenyl)-3,5,5,6-tetramethyl-5,6-dihydropyrimidin-4(3H)-one] |
| 39 | CC(Nc1ccc(F)c([C@@]2(C)N=C(N)N(C)C(=O)C2(C)C)c1)C1CC1 (stereo partly drawn) [Example 37, (S)-2-Amino-6-[5-(1-cyclopropyl-ethylamino)-2-fluoro-phenyl]-3,5,5,6-tetramethyl-5,6-dihydro-3H-pyrimidin-4-one] |
| 226 | CN1C(=O)C(C)(C)[C@@](C)(c2cc(NC3[C@H]4[C@@H](C[C@H]3O)[C@@H]4C(=O)O)ccc2F)N=C1N (stereo partly drawn) [Example 117, (1S,3R,5R,6S)-2-(3-((S)-2-amino-1,4,5,5-tetramethyl-6-oxo-1,4,5,6-tetrahydropyrimidin-4-yl)-4-fluorophenylamino)-3-hydroxybicyclo[3.1.0]hexane-6-carboxylic acid] |
| 21 | CN1C(=O)C(C)(C)[C@@](C)(c2cc(NC3CCc4cccc(F)c43)ccc2F)N=C1N (stereo partly drawn) [Example 63, (6S)-2-Amino-6-(2-fluoro-5-(7-fluoro-2,3-dihydro-1H-inden-1-ylamino)phenyl)-3,5,5,6-tetramethyl-5,6-dihydropyrimidin-4(3H)-one] |
| 12 | CN1C(=O)C(C)(C)[C@@](C)(c2cc(NCC(F)(F)F)ccc2F)N=C1N [Example 75, (S)-2-Amino-6-(2-fluoro-5-(2,2,2-trifluoroethylamino)phenyl)-3,5,5,6-tetramethyl-5,6-dihydropyrimidin-4(3H)-one] |
| 44 | CN1C(=O)C(C)(C)[C@@](C)(c2cc(NC(=O)[C@](C)(O)C(F)(F)F)ccc2F)N=C1N [Example 143, (S)—N-(3-((S)-2-amino-1,4,5,5-tetramethyl-6-oxo-1,4,5,6-tetrahydropyrimidin-4-yl)-4-fluorophenyl)-3,3,3-trifluoro-2-hydroxy-2-methylpropanamide] |
| 39 | CC1CCC(Nc2ccc(F)c([C@@]3(C)N=C(N)N(C)C(=O)C3(C)C)c2)C1 (stereo partly drawn) [Example 24, (S)-2-Amino-6-[2-fluoro-5-(3-methyl-cyclopentylamino)-phenyl]-3,5,5,6-tetramethyl-5,6-dihydro-3H-pyrimidin-4-one] |
| 7 | CCOC(=O)N1CCC(Nc2ccc(F)c([C@@]3(C)N=C(N)N(C)C(=O)C3(C)C)c2)C1 (stereo partly drawn) [Example 23, 3-[3-((S)-2-Amino-1,4,5,5-tetramethyl-6-oxo-1,4,5,6-tetrahydro-pyrimidin-4-yl)-4-fluoro-phenylamino]-pyrrolidine-1-carboxylic acid ethyl ester] |
| 298 | CN1C(=O)C(C)(C)[C@@](C)(c2cc(NC3CC(C)(C)CC3O)ccc2F)N=C1N (stereo partly drawn) [Example 158, (S)-2-Amino-6-[2-fluoro-5-(2-hydroxy-4,4-dimethyl-cyclopentylamino)-phenyl]-3,5,5,6-tetramethyl-5,6-dihydro-3H-pyrimidin-4-one] |
| 26 | Cc1nc(C(C)Nc2ccc(F)c([C@@]3(C)N=C(N)N(C)C(=O)C3(C)C)c2)sc1C (stereo partly drawn) [Example 126, (S)-2-Amino-6-{5-[1-(4,5-dimethyl-thiazol-2-yl)-ethylamino]-2-fluoro-phenyl}-3,5,5,6-tetramethyl-5,6-dihydro-3H-pyrimidin-4-one] |
| 1 | CN1C(=O)C(C)(C)[C@@](C)(c2cc(NCc3nn(C)cc3Cl)ccc2F)N=C1N [Example 96, (S)-2-Amino-6-{5-[(4-chloro-1-methyl-1H-pyrazol-3-ylmethyl)-amino]-2-fluoro-phenyl}-3,5,5,6-tetramethyl-5,6-dihydro-3H-pyrimidin-4-one] |
| 14 | CN1C(=O)C(C)(C)[C@@](C)(c2cc(NC3CCCC3)ccc2F)N=C1N [Example 21, (S)-2-Amino-6-(5-(cyclopentylamino)-2-fluorophenyl)-3,5,5,6-tetramethyl-5,6-dihydropyrimidin-4(3H)-one] |
| 24 | Cc1nc(C(C)Nc2ccc(F)c([C@@]3(C)N=C(N)N(C)C(=O)C3(C)C)c2)c(C(F)(F)F)o1 (stereo partly drawn) [Example 159, (S)-2-Amino-6-{2-fluoro-5-[1-(2-methyl-5-trifluoromethyl-oxazol-4-yl)-ethylamino]-phenyl}-3,5,5,6-tetramethyl-5,6-dihydro-3H-pyrimidin-4-one] |
| 8 | CC1OCCC1Nc1ccc(F)c([C@@]2(C)N=C(N)N(C)C(=O)C2(C)C)c1 (stereo partly drawn) [Example 34, (6S)-2-Amino-6-(2-fluoro-5-(2-methyltetrahydrofuran-3-ylamino)phenyl)-3,5,5,6-tetramethyl-5,6-dihydropyrimidin-4(3H)-one] |
| 242 | CN1C(=O)C(C)(C)[C@@](C)(c2cc(NC[C@@H]3C[C@H]3c3ccccc3)ccc2F)N=C1N [Example 97, (S)-2-Amino-6-{2-fluoro-5-[((1R,2R)-2-phenyl-cyclopropylmethyl)-amino]-phenyl}-3,5,5,6-tetramethyl-5,6-dihydro-3H-pyrimidin-4-one] |
| 156 | Cc1ncsc1CNc1ccc(F)c([C@@]2(C)N=C(N)N(C)C(=O)C2(C)C)c1 [Example 78, (S)-2-Amino-6-{2-fluoro-5-[(4-methyl-thiazol-5-ylmethyl)-amino]-phenyl}-3,5,5,6-tetramethyl-5,6-dihydro-3H-pyrimidin-4-one] |
| 977 | CN1C(=O)C(C)(C)[C@@](C)(c2cc(NC3CCC(CC(=O)O)C3)ccc2F)N=C1N (stereo partly drawn) [Example 115, 2-(3-(3-((S)-2-Amino-1,4,5,5-tetramethyl-6-oxo-1,4,5,6-tetrahydropyrimidin-4-yl)-4-fluorophenylamino)cyclopentyl)acetic acid] |
| 33 | CN1C(=O)C(C)(C)[C@@](C)(c2cc(NC3CCCC3Cl)ccc2F)N=C1N (stereo partly drawn) [Example 30, (6S)-2-Amino-6-(5-(2-chlorocyclopentylamino)-2-fluorophenyl)-3,5,5,6-tetramethyl-5,6-dihydropyrimidin-4(3H)-one] |
| 89 | CN1C(=O)C(C)(C)[C@@](C)(c2cc(NC(=O)[C@@](C)(O)C(F)(F)F)ccc2F)N=C1N [Example 142, (R)—N-(3-((S)-2-amino-1,4,5,5-tetramethyl-6-oxo-1,4,5,6-tetrahydropyrimidin-4-yl)-4-fluorophenyl)-3,3,3-trifluoro-2-hydroxy-2-methylpropanamide] |
| 25 | CN1C(=O)C(C)(C)[C@@](C)(c2cc(NC(=O)[C@H]3CC3(F)F)ccc2F)N=C1N [Example 9, (R)-2,2-Difluoro-cyclopropanecarboxylic acid [3-((S)-2-amino-1,4,5,5-tetramethyl-6-oxo-1,4,5,6-tetrahydro-pyrimidin-4-yl)-4-fluoro-phenyl]-amide] |
| 28 | Cc1cc(C(C)Nc2ccc(F)c([C@@]3(C)N=C(N)N(C)C(=O)C3(C)C)c2)[nH]n1 (stereo partly drawn) [Example 125, (S)-2-Amino-6-{2-fluoro-5-[1-(5-methyl-2H-pyrazol-3-yl)-ethylamino]-phenyl}-3,5,5,6-tetramethyl-5,6-dihydro-3H-pyrimidin-4-one] |
| 25 | CC(=O)OC1CC2CC1CC2Nc1ccc(F)c([C@@]2(C)N=C(N)N(C)C(=O)C2(C)C)c1 (stereo partly drawn) [Example 93, Acetic acid 5-[3-((S)-2-amino-1,4,5,5-tetramethyl-6-oxo-1,4,5,6-tetrahydro-pyrimidin-4-yl)-4-fluoro-phenylamino]-bicyclo[2.2.1]hept-2-yl ester] |
| 57 | CN1C(=O)C(C)(C)[C@@](C)(c2cccc(NC(=O)C3(C#N)CC3)c2)N=C1N [Example 1, 1-Cyano-cyclopropanecarboxylic acid [3-((R)-2-amino-1,4,5,5-tetramethyl-6-oxo-1,4,5,6-tetrahydro-pyrimidin-4-yl)-phenyl]-amide] |
| 44 | CC(Nc1ccc(F)c([C@@]2(C)N=C(N)N(C)C(=O)C2(C)C)c1)c1ncccn1 (stereo partly drawn) [Example 80, (S)-2-Amino-6-[2-fluoro-5-(1-pyrimidin-2-yl-ethylamino)-phenyl]-3,5,5,6-tetramethyl-5,6-dihydro-3H-pyrimidin-4-one] |
| 29 | CN1C(=O)C(C)(C)[C@@](C)(c2cc(NC3CCC(c4ccccc4)C3)ccc2F)N=C1N (stereo partly drawn) [Example 33, (6S)-2-Amino-6-(2-fluoro-5-(3-phenylcyclopentylamino)phenyl)-3,5,5,6-tetramethyl-5,6-dihydropyrimidin-4(3H)-one] |
| 1210 | CN1C(=O)C(C)(C)[C@@](C)(c2cc(Nc3cccc4c3OC(C)(C)C4)ccc2F)N=C1N [Example 156, (S)-2-Amino-6-(5-(2,2-dimethyl-2,3-dihydrobenzofuran-7-ylamino)-2-fluorophenyl)-3,5,5,6-tetramethyl-5,6-dihydropyrimidin-4(3H)-one] |
| 41 | CN1C(=O)C(C)(C)[C@@](C)(c2cc(NC3COc4cc(Cl)ccc43)ccc2F)N=C1N (stereo partly drawn) [Example 133, (S)-2-Amino-6-[5-(6-chloro-2,3-dihydro-benzofuran-3-ylamino)-2-fluoro-phenyl]-3,5,5,6-tetramethyl-5,6-dihydro-3H-pyrimidin-4-one] |
